Where “and” joins values, the source holds several entries; their conditions need not be identical. Equal entries are not always repeated. Inconclusive results and toxic doses are left out.
System: BDF1 mice, B16 melanoma ip, median survival T/C
Assay: NCI In Vivo Anticancer Drug Screen. Data for tumor model B16 Melanoma (intraperitoneal) in B6D2F1 (BDF1) mice
Settings: endpoint: median survival time, higher = longer survival
Outline: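 Survival or tumor size is measured after treatment of tumor-bearing mice and normalised to the vehicle-treated control group.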

[1] = dose: 100.0 mg/kg/injection, schedule: Q01DX009 (ip), vehicle: saline with Tween-80
[2] = dose: 200.0 mg/kg/injection, schedule: Q01DX009 (ip), vehicle: saline with Tween-80
[3] = dose: 100.0 mg/kg/injection, schedule: Q01DX009 (ip), vehicle: Klucel (hydroxypropylcellulose) (HPC)
[4] = dose: 200.0 mg/kg/injection, schedule: Q01DX009 (ip), vehicle: Klucel (hydroxypropylcellulose) (HPC)
[5] = dose: 25.0 mg/kg/injection, schedule: Q01DX009 (ip), vehicle: saline with Tween-80
[6] = dose: 50.0 mg/kg/injection, schedule: Q01DX009 (ip), vehicle: saline with Tween-80
[7] = dose: 400.0 mg/kg/injection, schedule: Q01DX009 (ip), vehicle: Klucel (hydroxypropylcellulose) (HPC)

CCN1/C(=C/C=C/C=C/c2sc3ccccc3[n+]2CC)Sc2ccccc21
T/C (dose: 0.01 mg/kg/injection, schedule: Q01DX009 (ip), vehicle: saline): 100 % of control | T/C (dose: 0.02 mg/kg/injection, schedule: Q01DX009 (ip), vehicle: saline): 98 % of control | T/C (dose: 0.05 mg/kg/injection, schedule: Q01DX009 (ip), vehicle: saline): 93 % of control | T/C (dose: 0.1 mg/kg/injection, schedule: Q01DX009 (ip), vehicle: saline): 98 % of control | T/C (dose: 0.2 mg/kg/injection, schedule: Q01DX009 (ip), vehicle: saline): 100 % of control

Clc1ccc2c(c1)C(=P(c1ccccc1)(c1ccccc1)c1ccccc1)c1cc(Cl)cc(Cl)c1-2
T/C [1]: 91 % of control | T/C [2]: 89 % of control

O=C(CCN1CC1)Nc1ccc(NC(=O)CCN2CC2)cc1
T/C (dose: 5.0 mg/kg/injection, schedule: Q04DX003 (ip), vehicle: Klucel (hydroxypropylcellulose) (HPC)): 170 % of control | T/C (dose: 10.0 mg/kg/injection, schedule: Q04DX003 (ip), vehicle: Klucel (hydroxypropylcellulose) (HPC)): 173 % of control and 184 % of control | T/C (dose: 20.0 mg/kg/injection, schedule: Q04DX003 (ip), vehicle: Klucel (hydroxypropylcellulose) (HPC)): 160 % of control and 175 % of control | T/C (dose: 40.0 mg/kg/injection, schedule: Q04DX003 (ip), vehicle: Klucel (hydroxypropylcellulose) (HPC)): 105 % of control

COc1ccc(C(=O)/C=C/c2ccc3c(c2)OCO3)cc1OC
T/C [3]: 96 % of control | T/C [4]: 93 % of control

CC(C)(C)OC(=O)N1CCCC1C(=O)Oc1ccc([N+](=O)[O-])cc1 (configuration not stated)
T/C (dose: 25.0 mg/kg/injection, schedule: Q04DX003 (ip), vehicle: saline with Tween-80): 94 % of control | T/C (dose: 50.0 mg/kg/injection, schedule: Q04DX003 (ip), vehicle: saline with Tween-80): 109 % of control | T/C (dose: 100.0 mg/kg/injection, schedule: Q04DX003 (ip), vehicle: saline with Tween-80): 104 % of control

CC1=C/C(O)CC(=O)Cc2nc(co2)C(=O)N2CCC=C2C(=O)OC(C(C)C)C(C)/C=C\C(=O)NC/C=C\1 (configuration not stated)
T/C (dose: 25.0 mg/kg/injection, schedule: Q01DX009 (ip), vehicle: Klucel (hydroxypropylcellulose) (HPC)): 91 % of control | T/C (dose: 50.0 mg/kg/injection, schedule: Q01DX009 (ip), vehicle: Klucel (hydroxypropylcellulose) (HPC)): 102 % of control | T/C [3]: 118 % of control | T/C [4]: 123 % of control | T/C (dose: 0.5 micrograms/kg/injection, schedule: Q01DX009 (ip), vehicle: saline): 103 % of control | T/C (dose: 1.0 micrograms/kg/injection, schedule: Q01DX009 (ip), vehicle: saline): 102 % of control | T/C (dose: 2.0 micrograms/kg/injection, schedule: Q01DX009 (ip), vehicle: saline): 107 % of control

Cc1cc(C)c(CN)cc1CN
T/C [5]: 108 % of control | T/C [6]: 112 % of control

NC(=O)Oc1cccc(OC(N)=O)c1
T/C (dose: 12.5 mg/kg/injection, schedule: Q01DX009 (ip), vehicle: water): 89 % of control | T/C (dose: 25.0 mg/kg/injection, schedule: Q01DX009 (ip), vehicle: water): 94 % of control | T/C (dose: 50.0 mg/kg/injection, schedule: Q01DX009 (ip), vehicle: water): 93 % of control | T/C (dose: 100.0 mg/kg/injection, schedule: Q01DX009 (ip), vehicle: water): 105 % of control | T/C (dose: 200.0 mg/kg/injection, schedule: Q01DX009 (ip), vehicle: water): 93 % of control | T/C (dose: 400.0 mg/kg/injection, schedule: Q01DX009 (ip), vehicle: water): 107 % of control

O=C(O)CCC(=O)O
T/C (dose: 10.0 mg/kg/injection, schedule: Q01DX009 (ip), vehicle: water): 101 % of control [middle of 4 runs] | T/C (dose: 20.0 mg/kg/injection, schedule: Q01DX009 (ip), vehicle: water): 102 % of control [middle of 4 runs] | T/C (dose: 40.0 mg/kg/injection, schedule: Q01DX009 (ip), vehicle: water): 101 % of control and 119 % of control and 98 % of control | T/C (dose: 80.0 mg/kg/injection, schedule: Q01DX009 (ip), vehicle: water): 93 % of control and 100 % of control and 104 % of control | T/C (dose: 160.0 mg/kg/injection, schedule: Q01DX009 (ip), vehicle: water): 88 % of control and 94 % of control and 114 % of control | T/C (dose: 320.0 mg/kg/injection, schedule: Q01DX009 (ip), vehicle: water): 106 % of control

COc1cccc(CNc2ccc(SC)cc2)c1OC
T/C [3]: 100 % of control | T/C [4]: 93 % of control | T/C [7]: 93 % of control

CN(C)c1ccc(-c2cc[n+](C)cc2)cc1
T/C (dose: 0.5 mg/kg/injection, schedule: Q01DX009 (ip), vehicle: saline): 109 % of control | T/C (dose: 1.0 mg/kg/injection, schedule: Q01DX009 (ip), vehicle: saline): 103 % of control | T/C (dose: 2.0 mg/kg/injection, schedule: Q01DX009 (ip), vehicle: saline): 101 % of control | T/C (dose: 3.0 mg/kg/injection, schedule: Q01DX009 (ip), vehicle: saline): 104 % of control | T/C (dose: 6.0 mg/kg/injection, schedule: Q01DX009 (ip), vehicle: saline): 92 % of control

Nc1ncn(C2OC(CO)C(O)C2O)c(=O)n1 (configuration not stated)
T/C (dose: 0.25 mg/kg/injection, schedule: Q01DX009 (ip), vehicle: suspension in saline): 90 % of control | T/C (dose: 0.5 mg/kg/injection, schedule: Q01DX009 (ip), vehicle: suspension in saline): 112 % of control | T/C (dose: 0.75 mg/kg/injection, schedule: Q01DX009 (ip), vehicle: saline with Tween-80): 118 % of control | T/C (dose: 1.0 mg/kg/injection, schedule: Q01DX009 (ip), vehicle: suspension in saline): 91 % of control | T/C (dose: 1.5 mg/kg/injection, schedule: Q01DX009 (ip), vehicle: saline with Tween-80): 124 % of control | T/C (dose: 2.0 mg/kg/injection, schedule: Q01DX009 (ip), vehicle: suspension in saline): 92 % of control

COc1ccc(NC(=O)Nc2c(C)cc(C)cc2C)cc1
T/C (dose: 100.0 mg/kg/injection, schedule: Q01DX009 (ip), vehicle: gum acacia): 96 % of control | T/C (dose: 200.0 mg/kg/injection, schedule: Q01DX009 (ip), vehicle: gum acacia): 90 % of control | T/C (dose: 400.0 mg/kg/injection, schedule: Q01DX009 (ip), vehicle: gum acacia): 101 % of control

CCc1ccc(NC(=O)Nc2cccc(Cl)c2)cc1
T/C [3]: 91 % of control | T/C [4]: 102 % of control | T/C [7]: 88 % of control

C=C1CCN(c2ccc([N+](=O)[O-])cc2)C1=O
T/C (dose: 4.0 mg/kg/injection, schedule: Q01DX009 (ip), vehicle: saline + alcohol): 97 % of control | T/C (dose: 8.0 mg/kg/injection, schedule: Q01DX009 (ip), vehicle: saline + alcohol): 107 % of control | T/C (dose: 16.0 mg/kg/injection, schedule: Q01DX009 (ip), vehicle: saline + alcohol): 98 % of control | T/C (dose: 32.0 mg/kg/injection, schedule: Q01DX009 (ip), vehicle: saline + alcohol): 89 % of control | T/C (dose: 64.0 mg/kg/injection, schedule: Q01DX009 (ip), vehicle: saline + alcohol): 95 % of control

Cc1ccc(S(=O)(=O)N2CCC(C(=O)O)(c3ccccc3)CC2)cc1
T/C [6]: 113 % of control | T/C [1]: 99 % of control | T/C [2]: 103 % of control

O=C1C=CC(=O)N1c1ccc(Cl)cc1
T/C (dose: 1.25 mg/kg/injection, schedule: Q01DX009 (ip), vehicle: Klucel (hydroxypropylcellulose) (HPC)): 97 % of control

COC(=O)C(C)CN1CCCCC1 (configuration not stated)
T/C (dose: 50.0 mg/kg/injection, schedule: Q04DX003 (ip), vehicle: saline): 111 % of control | T/C (dose: 100.0 mg/kg/injection, schedule: Q04DX003 (ip), vehicle: saline): 111 % of control | T/C (dose: 200.0 mg/kg/injection, schedule: Q04DX003 (ip), vehicle: saline): 105 % of control

CC(N)(Cc1ccc(O)c(O)c1)C(=O)O (configuration not stated)
T/C (dose: 50.0 mg/kg/injection, schedule: Q01DX009 (ip), vehicle: saline): 115 % of control | T/C (dose: 100.0 mg/kg/injection, schedule: Q01DX009 (ip), vehicle: saline): 100 % of control | T/C (dose: 200.0 mg/kg/injection, schedule: Q01DX009 (ip), vehicle: saline): 107 % of control | T/C (dose: 400.0 mg/kg/injection, schedule: Q01DX009 (ip), vehicle: saline): 110 % of control

Cc1cccc(C)c1NC(=O)c1ccc(Cl)cc1Cl
T/C [3]: 92 % of control

O=[N+]([O-])c1ccc([S][Pb]([c]2ccccc2)([c]2ccccc2)[c]2ccccc2)cc1
T/C (dose: 6.25 mg/kg/injection, schedule: Q04DX003 (ip), vehicle: Klucel (hydroxypropylcellulose) (HPC)): 94 % of control | T/C (dose: 12.5 mg/kg/injection, schedule: Q04DX003 (ip), vehicle: Klucel (hydroxypropylcellulose) (HPC)): 97 % of control | T/C (dose: 25.0 mg/kg/injection, schedule: Q04DX003 (ip), vehicle: Klucel (hydroxypropylcellulose) (HPC)): 93 % of control | T/C (dose: 50.0 mg/kg/injection, schedule: Q04DX003 (ip), vehicle: Klucel (hydroxypropylcellulose) (HPC)): 88 % of control

Cc1cc(=O)n2c3c(c4c(cc13)c(CN(C)C)cc(=O)n4C)OC2
T/C (dose: 6.25 mg/kg/injection, schedule: Q01DX009 (ip), vehicle: saline with Tween-80): 103 % of control | T/C (dose: 12.5 mg/kg/injection, schedule: Q01DX009 (ip), vehicle: saline with Tween-80): 101 % of control | T/C [5]: 113 % of control | T/C [6]: 117 % of control

Source: PubChem BioAssay AID192 (DTP/NCI, 2004)
